According to BigSolDB 2.1:

Cc1ccc(NC(=O)/C(=C/Cl)Sc2ccccc2)cc1
solubility (mole fraction)
Details | 278.15 K | 283.15 K | 288.15 K | 293.15 K | 298.15 K | 303.15 K | 308.15 K | 313.15 K | 318.15 K
in 1,2-dichloroethane | 0.0353 | 0.0413 | 0.0512 | 0.0615 | 0.0773 | 0.0942 | 0.115 | 0.136 | 0.161
in 2-butanone | 0.0308 | 0.0365 | 0.0436 | 0.0529 | 0.0632 | 0.0772 | 0.0943 | 0.112 | 0.135
in 2-methyltetrahydrofuran | 0.0393 | 0.0466 | 0.0507 | 0.0604 | 0.0702 | 0.0858 | 0.103 | 0.126 | 0.145
in MTBE | 0.0068 | 0.0075 | 0.0092 | 0.0104 | 0.0132 | 0.0153 | 0.0187 | 0.0223 | 0.0277
in THF | 0.0849 | 0.0953 | 0.105 | 0.118 | 0.133 | 0.154 | 0.171 | 0.195 | 0.218
in acetone | 0.0216 | 0.0258 | 0.0296 | 0.0364 | 0.0452 | 0.0564 | 0.0707 | 0.0889 | 0.114
in acetonitrile | 0.0043 | 0.0051 | 0.0065 | 0.0086 | 0.0115 | 0.0148 | 0.02 | 0.0267 | 0.0362
in ethyl acetate | 0.0187 | 0.0233 | 0.0271 | 0.0331 | 0.0409 | 0.0522 | 0.0657 | 0.0794 | 0.0978
in isopropanol | 0.0019 | 0.0021 | 0.0025 | 0.0031 | 0.0041 | 0.0048 | 0.0063 | 0.0075 | 0.0093
in methyl acetate | 0.0153 | 0.0195 | 0.0228 | 0.028 | 0.0352 | 0.0471 | 0.0572 | 0.0693 | 0.0797
in tert-amyl alcohol | 0.0013 | 0.0015 | 0.0018 | 0.0026 | 0.0034 | 0.005 | 0.0068 | 0.0096 | 0.0129
in toluene | 0.014 | 0.0165 | 0.0202 | 0.0266 | 0.0318 | 0.0443 | 0.0551 | 0.069 | 0.0876
